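Exposure lasted 48 hours, with cells grown in 96-well plates and compounds tested at five concentrations. GI50: concentration for 50% inhibition of growth.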 Activity calls are given as the source filed them. Cut-off read from the data, not from the text of the source: active = GI50 up to about 1.1 µM and inactive = higher. A value given as a limit tells only on which side of the number the result lay.

What all share (assay): NCI tumour cell line growth inhibition, 48 h
In assay [1] the test system is PC-3.
The subject of assay [2] is MDA-N.
The subject of assay [3] is IGROV-1.
Assay [4] has as its system A549.
The test system of assay [5] is SNB-75.
For assay [6], the system named is HL-60.
The subject of assay [7] is UACC-62.
For assay [8], the system named is DU-145.
Assay [9] deals with HT-29.
Assay [10] concerns TK-10.
Assay [11] relates to HCT-15.
Assay [12] relates to SK-OV-3.
The subject of assay [13] is SF-539.
The test system of assay [14] is HOP-92.
Assay [15] relates to SN12C.
Assay [16] deals with UACC-257.
For assay [17], the system named is KM12.
The subject of assay [18] is NCI-H23.
The test system of assay [19] is SW-620.
Assay [20] has as its system SR.

In the case of `CCCCCc1cc2c(cc1O)CC[C@@H]1[C@@H]2CC[C@]2(C)[C@@H](O)CC[C@@H]12`, the GI50 in [1] was 16.6 µM (inactive); in assay [2], 17.9 µM (inactive); in [3] it was 18.5 µM (inactive); in assay [4] it was 19.3 µM (inactive); in assay [5], 13.5 µM (inactive); in [6] it was 21.3 µM (inactive). Besides, the GI50 in [7] was 19.2 µM (inactive); in [8], 16.4 µM (inactive); in assay [9], 20 µM (inactive); in assay [10], 16.3 µM (inactive); in assay [11], 15.9 µM; in [12], 21.8 µM (inactive). Further, the GI50 in assay [13] is 23.8 µM (inactive); in assay [14], 14.3 µM (inactive); in assay [15], 16.2 µM (inactive); in assay [16], 21 µM (inactive); in [17], 10.9 µM (inactive); in [18], 21.3 µM (inactive). Besides, the GI50 in assay [19] is 26.4 µM (inactive).

As for `COC(=O)C(Cc1c(C2Nc3ccccc3C2CC(NC(C)=O)C(=O)OC)[nH]c2ccccc12)NC(C)=O` (centres undefined), the GI50 in [1], in assay [2], in assay [3], in assay [4], in [5] and in assay [6] was > 100 µM (inactive) in each case. Moreover, the GI50 in assay [7] is > 100 µM (inactive); in [8], > 100 µM (inactive); in [9], > 100 µM (inactive); in [10], > 100 µM (inactive); in [11], over 100 µM; in assay [12], > 100 µM (inactive). For the same molecule, the GI50 in [13], in assay [14], in [15], in assay [16], in assay [17] and in assay [18] was > 100 µM (inactive) throughout. The GI50 in assay [19] is > 100 µM (inactive).

As to `O=C1NCCCNCCCNCCCNC(=O)c2cccc1n2`, the GI50 in [1], in assay [20], in assay [2], in [3], in assay [4] and in [5] was > 100 µM (inactive) in each case. The GI50 in [7] is > 100 µM (inactive); in assay [9], > 100 µM (inactive); in assay [10], > 100 µM (inactive); in assay [11], over 100 µM; in [12] it was > 100 µM (inactive); in assay [13] it was > 100 µM (inactive). In addition, the GI50 in [15], in assay [16], in [17], in assay [18] and in assay [19] was > 100 µM (inactive) in each case.

Turning to `O=[N+]([O-])c1ccc(Cc2nc3cc4ccccc4cc3[nH]2)cc1C(F)(F)F`, the GI50 is 15.4 µM (inactive) in [1]; 13.9 µM (inactive) in assay [4]; 14.9 µM (inactive) in assay [5]; 10 µM (inactive) in assay [6]; 22.1 µM (inactive) in [8]; 14.3 µM (inactive) in assay [9]. Further, the GI50 in [10] is 20.2 µM (inactive); in [11], 12 µM; in assay [12], 13.5 µM (inactive); in assay [13] it was 16.2 µM (inactive); in assay [14], 14.9 µM (inactive); in [15], 18.7 µM (inactive). Further, the GI50 in [16] was 14.1 µM (inactive); in assay [17] it was 13.4 µM (inactive); in assay [18] it was 12.5 µM (inactive); in [19], 19.8 µM (inactive).

For `CSC1(CC(=O)N(C)C)C(=O)Nc2ccccc21` (centres undefined), the GI50 in [1], in assay [20], in assay [3], in assay [4], in assay [5] and in assay [7] was > 100 µM (inactive) in each case. Also, the GI50 in assay [8] was > 100 µM (inactive); in assay [9], > 100 µM (inactive); in assay [10], > 100 µM (inactive); in [11], over 100 µM; in assay [12], > 100 µM (inactive); in assay [13], > 100 µM (inactive). Besides, the GI50 in assay [16], in assay [17], in assay [18] and in [19] was > 100 µM (inactive) throughout.

For the molecule `CC1=NN(c2nc(N)nc(CC#N)n2)C(C)(C)C1`, the GI50 in assay [1], in assay [20], in [3], in assay [5], in [6] and in assay [7] was > 100 µM (inactive) each time. Moreover, the GI50 in assay [8] is > 100 µM (inactive); in [9], > 100 µM (inactive); in assay [10], > 100 µM (inactive); in assay [11], over 100 µM; in assay [12], > 100 µM (inactive); in [13], > 100 µM (inactive). For the same molecule, the GI50 in assay [14], in assay [16], in assay [17], in assay [18] and in assay [19] was > 100 µM (inactive) each time.

As for `CC(=O)Nc1ccc(C(=O)NN2C(=O)CSC2c2ccc(O)cc2)cc1` (centres undefined), the GI50 in assay [2] was > 100 µM (inactive); in assay [3], > 100 µM (inactive); in [4], > 100 µM (inactive); in assay [5], 91.6 µM (inactive); in assay [6], > 100 µM (inactive); in [7], > 100 µM (inactive). Besides, the GI50 in assay [8] was > 100 µM (inactive); in [9], > 100 µM (inactive); in [10], > 100 µM (inactive); in assay [11] it was over 100 µM; in [12], > 100 µM (inactive); in assay [13], > 100 µM (inactive). The GI50 in assay [14], in assay [15], in assay [16], in assay [17], in assay [18] and in assay [19] was > 100 µM (inactive) each time.

Regarding `O=C1C(Cl)=C(NCCc2ccc(O)cc2)C(=O)c2c(O)ccc(O)c21`, the GI50 in [1] was > 10 µM (inactive); in [2], > 10 µM (inactive); in [3] it was > 10 µM (inactive); in assay [4], > 10 µM (inactive); in [5], > 10 µM (inactive); in assay [6], 5.42 µM (inactive). Further, the GI50 is 3.74 µM (inactive) in [7]; > 10 µM (inactive) in assay [8]; 4.27 µM (inactive) in [9]; > 10 µM (inactive) in assay [10]; over 10 µM in [11]; > 10 µM (inactive) in [12]. For the same molecule, the GI50 is 6.58 µM (inactive) in assay [13]; > 10 µM (inactive) in assay [14]; > 10 µM (inactive) in [15]; 4.74 µM (inactive) in assay [16]; 7.28 µM (inactive) in assay [17]; > 10 µM (inactive) in assay [18]. Further, the GI50 in [19] is > 10 µM (inactive).

With `CN(NC(=O)c1cccs1)C1=NCCCCN1`, the GI50 in assay [1], in [20], in assay [2], in assay [3], in assay [4] and in assay [5] was > 100 µM (inactive) each time. In addition, the GI50 was > 100 µM (inactive) in assay [6]; > 100 µM (inactive) in assay [7]; > 100 µM (inactive) in assay [9]; > 100 µM (inactive) in assay [10]; over 100 µM in assay [11]; > 100 µM (inactive) in [12]. Also, the GI50 in assay [13], in assay [14], in assay [16], in [17], in [18] and in [19] was > 100 µM (inactive) throughout.

As for `CSc1cc(Cl)c(C)cc1S(=O)(=O)NC(=O)NNc1ccc(F)cc1`, the GI50 in [1], in assay [20], in assay [2], in assay [3], in [4] and in [5] was > 100 µM (inactive) throughout. Further, the GI50 is > 100 µM (inactive) in [8]; > 100 µM (inactive) in assay [9]; over 100 µM in [11]; > 100 µM (inactive) in assay [12]; > 100 µM (inactive) in [13]; > 100 µM (inactive) in assay [15]. Moreover, the GI50 in [17] and in [19] was > 100 µM (inactive) each time.

On to `C\C(=N/N=C1/C(=C\N(C)C)C(=O)NC(=O)N1C)c1ccc(Cl)cc1`, for which the GI50 in assay [1] was 72.1 µM (inactive); in [2] it was > 100 µM (inactive); in [3], 53 µM (inactive); in assay [4], 87.7 µM (inactive); in assay [5], 32.6 µM (inactive); in [7], > 100 µM (inactive). For the same molecule, the GI50 in assay [8] was > 100 µM (inactive); in assay [9], > 100 µM (inactive); in [10] it was 57.3 µM (inactive); in [11], over 100 µM; in assay [12], > 100 µM (inactive); in assay [13] it was > 100 µM (inactive). The GI50 in assay [14] was > 100 µM (inactive); in assay [15], > 100 µM (inactive); in assay [16], > 100 µM (inactive); in assay [17], 44.6 µM (inactive); in [18] it was > 100 µM (inactive); in [19], 89.7 µM (inactive).

For `COc1ccc(-c2cc(-c3ccccc3)nc(N)c2-c2ccc3ccccc3c2)cc1`, the GI50 in assay [1] is 2.22 µM (inactive); in [20], 2.15 µM (inactive); in assay [2] it was 1.6 µM (inactive); in assay [3] it was 1.68 µM (inactive); in assay [4], 2.21 µM (inactive); in assay [5] it was 2.3 µM (inactive). Also, the GI50 is 1.58 µM (inactive) in [7]; 1 µM (active) in [9]; 3.15 µM (inactive) in assay [10]; 1.54 µM in assay [11]; 3.84 µM (inactive) in assay [12]; 2.1 µM (inactive) in [13]. Besides, the GI50 in [14] was 1.5 µM (inactive); in assay [15] it was 1.86 µM (inactive); in assay [16], 1.86 µM (inactive); in [17], 1.73 µM (inactive); in assay [18] it was 1.86 µM (inactive); in assay [19], 1.75 µM (inactive).
